Experimental data taken from publication PMC5538713, “RORγt and RORα signature genes in human Th17 cells” (PLoS ONE, 2017).
Where two headings read alike, the source gives them in different places.

Assays:
Test in all cases: Cerep selectivity panel
Type in all cases: binding
5HT5A (h) = molecular target: T1, 5HT5A (h) (Homo sapiens, UniProt P47898); settings: for inhibition at 10 µM: read-out: % Inhibition at 10µM; for inhibition at 1 µM: read-out: % Inhibition at 1µM
T1 construct: purchased Cerep
T1 sequence (P47898 whole entry): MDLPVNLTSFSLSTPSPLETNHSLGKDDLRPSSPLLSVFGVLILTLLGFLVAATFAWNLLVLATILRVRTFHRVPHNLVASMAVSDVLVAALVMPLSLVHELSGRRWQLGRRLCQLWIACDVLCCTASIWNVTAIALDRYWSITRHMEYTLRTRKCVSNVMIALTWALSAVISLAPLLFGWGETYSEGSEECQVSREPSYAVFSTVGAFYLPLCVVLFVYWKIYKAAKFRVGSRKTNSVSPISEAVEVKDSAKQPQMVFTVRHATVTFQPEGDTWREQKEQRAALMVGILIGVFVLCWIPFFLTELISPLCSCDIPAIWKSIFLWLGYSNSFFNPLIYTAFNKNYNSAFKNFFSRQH
Experimental: (§1) Supplementary file pone.0181868.s003.docx: S3 Table Selectivity profile of RORγt inverse agonists A, B, C and D. Compounds were evaluated at 1 μM and 10 μM in a panel of assays against 50 receptors, ion channels and transporters (Profile service by Cerep Inc.). (DOCX) Click here for additional data file.
(§2) S3 Table. RORɣt inverse agonists A, B, C and D were evaluated at 1 µM and 10 µM in a panel of assays against 50 receptors, ion channels and transporters (Profile service by Cerep Inc.).

CXCR2 (h) = molecular target: T2, CXCR2 (h) (Homo sapiens, UniProt P25025); settings: read-out: % Inhibition at 10µM
T2 construct: purchased Cerep
T2 sequence (P25025 1-360): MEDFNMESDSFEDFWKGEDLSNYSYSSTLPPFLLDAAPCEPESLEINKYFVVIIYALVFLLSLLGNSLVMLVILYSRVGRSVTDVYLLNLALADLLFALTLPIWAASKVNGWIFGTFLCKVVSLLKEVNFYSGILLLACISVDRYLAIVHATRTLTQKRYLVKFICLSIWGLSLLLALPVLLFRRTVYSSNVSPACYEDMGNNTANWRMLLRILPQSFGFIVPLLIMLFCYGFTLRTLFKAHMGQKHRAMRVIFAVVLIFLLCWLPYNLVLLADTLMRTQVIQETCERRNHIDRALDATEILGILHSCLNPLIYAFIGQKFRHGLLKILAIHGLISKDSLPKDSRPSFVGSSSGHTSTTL
Experimental: as §1, §2

NK3 (h) = molecular target: T3, NK3 (h) (Homo sapiens, UniProt P29371); settings: for inhibition at 10 µM: read-out: % Inhibition at 10µM; for inhibition at 1 µM: read-out: % Inhibition at 1µM
T3 construct: purchased Cerep
T3 sequence (P29371 1-465): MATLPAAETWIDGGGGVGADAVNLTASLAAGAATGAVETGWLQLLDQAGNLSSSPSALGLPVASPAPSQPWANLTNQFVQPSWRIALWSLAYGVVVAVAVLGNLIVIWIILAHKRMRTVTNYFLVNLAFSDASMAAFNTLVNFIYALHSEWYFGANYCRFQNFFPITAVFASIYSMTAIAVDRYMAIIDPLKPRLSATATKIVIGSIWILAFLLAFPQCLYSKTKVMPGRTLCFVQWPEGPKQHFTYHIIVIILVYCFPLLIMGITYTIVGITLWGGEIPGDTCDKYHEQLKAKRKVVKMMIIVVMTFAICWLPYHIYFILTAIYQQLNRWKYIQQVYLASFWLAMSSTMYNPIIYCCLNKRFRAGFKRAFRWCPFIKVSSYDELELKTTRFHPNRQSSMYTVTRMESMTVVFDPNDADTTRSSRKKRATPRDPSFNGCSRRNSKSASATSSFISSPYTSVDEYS
Experimental: as §1, §2

5-HT6 (h) = molecular target: T4, 5-HT6 (h) (Homo sapiens, UniProt P50406); settings: for inhibition at 10 µM: read-out: % Inhibition at 10µM
T4 construct: purchased Cerep
T4 sequence (P50406 whole entry): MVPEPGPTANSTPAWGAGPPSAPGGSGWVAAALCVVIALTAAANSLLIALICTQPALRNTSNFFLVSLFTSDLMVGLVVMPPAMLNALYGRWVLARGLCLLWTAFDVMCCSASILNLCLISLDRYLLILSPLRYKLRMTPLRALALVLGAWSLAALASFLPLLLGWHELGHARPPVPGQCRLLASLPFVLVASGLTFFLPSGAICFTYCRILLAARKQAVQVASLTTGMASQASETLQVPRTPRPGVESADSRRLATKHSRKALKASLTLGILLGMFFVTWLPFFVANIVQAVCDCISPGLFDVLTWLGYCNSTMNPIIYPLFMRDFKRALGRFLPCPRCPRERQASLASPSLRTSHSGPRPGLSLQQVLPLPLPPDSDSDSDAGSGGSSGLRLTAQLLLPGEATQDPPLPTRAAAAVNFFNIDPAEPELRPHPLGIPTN
Experimental: as §1, §2

ɣ2 (h) = molecular target: T5, ɣ2 (h) (Homo sapiens, UniProt P49146)
T5 construct: purchased Cerep
T5 sequence (P49146 1-381): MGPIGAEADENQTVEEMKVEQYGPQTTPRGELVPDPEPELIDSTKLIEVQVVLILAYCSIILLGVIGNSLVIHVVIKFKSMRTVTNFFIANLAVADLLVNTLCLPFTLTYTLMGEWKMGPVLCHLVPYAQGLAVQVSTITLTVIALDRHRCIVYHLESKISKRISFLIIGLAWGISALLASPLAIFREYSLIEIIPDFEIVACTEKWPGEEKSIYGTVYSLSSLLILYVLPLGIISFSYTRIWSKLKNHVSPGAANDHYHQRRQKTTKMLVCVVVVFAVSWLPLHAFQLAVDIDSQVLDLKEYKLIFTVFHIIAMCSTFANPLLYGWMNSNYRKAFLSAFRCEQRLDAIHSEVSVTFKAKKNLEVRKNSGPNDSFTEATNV
Experimental: as §1, §2

A3 (h) = molecular target: T6, A3 (h) (Homo sapiens, UniProt P0DMS8); settings: for inhibition at 10 µM: read-out: % Inhibition at 10µM; for inhibition at 1 µM: read-out: % Inhibition at 1µM
T6 construct: purchased Cerep
T6 sequence (P0DMS8 1-318): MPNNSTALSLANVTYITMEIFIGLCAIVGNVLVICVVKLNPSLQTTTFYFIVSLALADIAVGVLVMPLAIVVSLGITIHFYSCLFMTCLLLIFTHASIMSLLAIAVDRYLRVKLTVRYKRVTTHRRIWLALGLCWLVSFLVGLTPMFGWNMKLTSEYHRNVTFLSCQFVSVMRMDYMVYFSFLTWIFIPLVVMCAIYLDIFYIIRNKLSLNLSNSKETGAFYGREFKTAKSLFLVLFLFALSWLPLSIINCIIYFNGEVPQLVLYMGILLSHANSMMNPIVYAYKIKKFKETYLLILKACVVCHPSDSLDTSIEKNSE
Experimental: as §1, §2

AT1 (h) = molecular target: T7, AT1 (h) (Homo sapiens, UniProt P30556); settings: for inhibition at 10 µM: read-out: % Inhibition at 10µM; for inhibition at 1 µM: read-out: % Inhibition at 1µM
T7 construct: purchased Cerep
T7 sequence (P30556 1-359): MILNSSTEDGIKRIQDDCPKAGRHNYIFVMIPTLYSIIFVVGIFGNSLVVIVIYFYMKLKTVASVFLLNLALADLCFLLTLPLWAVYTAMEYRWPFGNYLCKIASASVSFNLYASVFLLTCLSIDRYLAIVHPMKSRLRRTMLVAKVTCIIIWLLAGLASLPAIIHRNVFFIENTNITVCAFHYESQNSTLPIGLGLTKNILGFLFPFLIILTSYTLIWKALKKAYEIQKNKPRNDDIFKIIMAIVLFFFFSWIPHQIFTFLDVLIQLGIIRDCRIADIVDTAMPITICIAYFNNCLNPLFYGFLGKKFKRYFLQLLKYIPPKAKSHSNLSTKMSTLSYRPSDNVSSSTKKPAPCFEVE
Experimental: as §1, §2

NE-T = molecular target: T8, NE-T (Homo sapiens, UniProt P23975); settings: for inhibition at 1 µM: read-out: % Inhibition at 1µM; for inhibition at 10 µM: read-out: % Inhibition at 10µM
T8 construct: purchased Cerep
T8 sequence (P23975 whole entry): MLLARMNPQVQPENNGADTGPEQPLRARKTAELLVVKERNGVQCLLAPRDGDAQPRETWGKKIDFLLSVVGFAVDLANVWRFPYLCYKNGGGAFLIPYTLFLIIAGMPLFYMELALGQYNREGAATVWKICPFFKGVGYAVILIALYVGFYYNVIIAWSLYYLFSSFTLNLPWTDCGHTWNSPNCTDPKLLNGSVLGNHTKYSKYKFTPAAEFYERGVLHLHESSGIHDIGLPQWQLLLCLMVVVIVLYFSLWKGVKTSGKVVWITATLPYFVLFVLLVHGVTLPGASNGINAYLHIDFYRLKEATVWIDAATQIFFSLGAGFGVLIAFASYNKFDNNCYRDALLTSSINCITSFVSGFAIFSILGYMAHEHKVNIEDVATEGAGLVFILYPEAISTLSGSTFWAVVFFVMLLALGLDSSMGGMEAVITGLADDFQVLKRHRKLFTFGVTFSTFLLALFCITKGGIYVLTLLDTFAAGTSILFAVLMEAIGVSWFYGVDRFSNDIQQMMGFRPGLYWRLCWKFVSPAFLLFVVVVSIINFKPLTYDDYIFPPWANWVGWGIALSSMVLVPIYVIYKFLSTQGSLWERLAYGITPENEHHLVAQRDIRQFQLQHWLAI
Experimental: as §1, §2

DA-T = molecular target: T9, DA-T (Homo sapiens, UniProt Q01959); settings: for inhibition at 1 µM: read-out: % Inhibition at 1µM; for inhibition at 10 µM: read-out: % Inhibition at 10µM
T9 construct: purchased Cerep
T9 sequence (Q01959 whole entry): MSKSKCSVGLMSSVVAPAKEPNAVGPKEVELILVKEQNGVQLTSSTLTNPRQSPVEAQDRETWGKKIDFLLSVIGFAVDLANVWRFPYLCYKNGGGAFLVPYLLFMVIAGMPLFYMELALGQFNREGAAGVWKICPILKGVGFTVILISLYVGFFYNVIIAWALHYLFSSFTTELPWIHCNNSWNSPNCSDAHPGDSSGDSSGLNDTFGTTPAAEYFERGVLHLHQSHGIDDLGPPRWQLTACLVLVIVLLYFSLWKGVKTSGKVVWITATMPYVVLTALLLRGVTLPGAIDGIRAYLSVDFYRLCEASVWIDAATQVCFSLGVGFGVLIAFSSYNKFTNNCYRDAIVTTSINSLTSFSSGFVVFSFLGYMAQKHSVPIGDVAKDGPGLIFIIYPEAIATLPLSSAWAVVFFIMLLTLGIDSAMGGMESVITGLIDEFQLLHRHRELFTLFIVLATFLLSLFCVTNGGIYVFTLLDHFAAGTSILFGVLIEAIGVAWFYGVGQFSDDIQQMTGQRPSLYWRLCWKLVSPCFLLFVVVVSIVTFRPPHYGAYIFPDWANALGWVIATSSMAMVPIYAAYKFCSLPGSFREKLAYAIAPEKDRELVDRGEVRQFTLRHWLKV
Experimental: as §1, §2

D2S (h) = molecular target: T10, D2S (h) (Homo sapiens, UniProt P14416); settings: for inhibition at 1 µM: read-out: % Inhibition at 1µM; for inhibition at 10 µM: read-out: % Inhibition at 10µM
T10 construct: purchased Cerep
T10 sequence (P14416 1-414 isoform P14416-2): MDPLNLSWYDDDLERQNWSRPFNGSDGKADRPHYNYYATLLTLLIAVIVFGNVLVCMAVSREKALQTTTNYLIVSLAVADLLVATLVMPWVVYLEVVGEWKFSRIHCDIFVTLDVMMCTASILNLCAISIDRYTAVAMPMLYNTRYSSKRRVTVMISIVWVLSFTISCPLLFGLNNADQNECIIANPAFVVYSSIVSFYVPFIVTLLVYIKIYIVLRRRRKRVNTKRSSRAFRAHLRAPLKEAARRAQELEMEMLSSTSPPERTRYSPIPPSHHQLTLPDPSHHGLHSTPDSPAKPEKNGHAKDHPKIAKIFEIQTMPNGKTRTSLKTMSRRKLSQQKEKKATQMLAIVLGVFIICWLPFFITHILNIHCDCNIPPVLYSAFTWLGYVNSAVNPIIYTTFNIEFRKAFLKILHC
Experimental: as §1, §2

OP3 (h) = molecular target: T11, OP3 (h) (Homo sapiens, UniProt P35372); settings: for inhibition at 1 µM: read-out: % Inhibition at 1µM; for inhibition at 10 µM: read-out: % Inhibition at 10µM
T11 construct: purchased Cerep
T11 sequence (P35372 whole entry): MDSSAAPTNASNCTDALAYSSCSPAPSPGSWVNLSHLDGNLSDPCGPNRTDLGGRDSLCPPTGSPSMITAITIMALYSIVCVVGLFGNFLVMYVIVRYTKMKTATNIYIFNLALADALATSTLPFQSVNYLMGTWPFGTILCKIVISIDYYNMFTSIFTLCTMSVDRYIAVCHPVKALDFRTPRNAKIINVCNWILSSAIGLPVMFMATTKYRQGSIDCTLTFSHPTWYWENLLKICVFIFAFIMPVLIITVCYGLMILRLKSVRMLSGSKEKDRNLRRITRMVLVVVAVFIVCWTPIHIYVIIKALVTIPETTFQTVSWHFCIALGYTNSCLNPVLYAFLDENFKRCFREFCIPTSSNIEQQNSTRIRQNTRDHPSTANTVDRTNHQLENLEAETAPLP
Experimental: as §1, §2

A2A (h) = molecular target: T12, A2A (h) (Homo sapiens, UniProt P29274); settings: for inhibition at 1 µM: read-out: % Inhibition at 1µM; for inhibition at 10 µM: read-out: % Inhibition at 10µM
T12 construct: purchased Cerep
T12 sequence (P29274 whole entry): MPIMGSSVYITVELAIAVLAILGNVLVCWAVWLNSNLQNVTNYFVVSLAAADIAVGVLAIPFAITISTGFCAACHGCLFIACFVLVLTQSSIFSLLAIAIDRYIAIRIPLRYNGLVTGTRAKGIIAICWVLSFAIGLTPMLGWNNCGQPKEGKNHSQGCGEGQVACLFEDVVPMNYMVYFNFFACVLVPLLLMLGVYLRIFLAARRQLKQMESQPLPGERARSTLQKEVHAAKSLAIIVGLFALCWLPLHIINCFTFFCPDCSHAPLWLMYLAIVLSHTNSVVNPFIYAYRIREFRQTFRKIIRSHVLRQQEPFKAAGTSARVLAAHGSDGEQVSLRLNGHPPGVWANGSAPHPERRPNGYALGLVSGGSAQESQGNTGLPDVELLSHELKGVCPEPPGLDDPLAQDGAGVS
Experimental: as §1, §2

SMILES | inhibition at 10 µM (5HT5A (h)) | inhibition at 10 µM (CXCR2 (h)) | inhibition at 10 µM (NK3 (h)) | inhibition at 10 µM (5-HT6 (h)) | inhibition at 10 µM (ɣ2 (h)) | inhibition at 10 µM (A3 (h)) | inhibition at 10 µM (AT1 (h)) | inhibition at 1 µM (NE-T) | inhibition at 10 µM (NE-T) | inhibition at 1 µM (DA-T) | inhibition at 10 µM (DA-T) | inhibition at 1 µM (D2S (h)) | inhibition at 1 µM (OP3 (h)) | inhibition at 10 µM (OP3 (h)) | inhibition at 1 µM (A2A (h)) | inhibition at 10 µM (A2A (h)) | inhibition at 1 µM (5HT5A (h)) | inhibition at 1 µM (NK3 (h)) | inhibition at 1 µM (A3 (h)) | also measured
CN(C)c1nc2ccc(C(O)(c3ccncc3)c3cncn3C)cc2c(Cl)c1-c1ccccc1 (centres unmarked) [compound D] | 42% | 17% | 45% | 18% | 15% | 67% | 28% | 5% | 76% | 23% | 87% | 7% | 3% | 30% | 2% | 43% | – | – | – | inhibition at 1 µM (ɣ2 (h); 1 µM): 10%; inhibition at 10 µM (D2S (h)): 25%
COc1nc2ccc([C@@](O)(c3ccc(C)nc3C)c3cnnn3C)cc2c(Cl)c1Cc1ccc(C(F)(F)F)cc1 [compound A] | – | – | – | – | – | – | – | – | – | – | – | – | – | – | – | – | – | – | – | inhibition at 1 µM (5HT5A (h); 5HT5A (h), 1 µM): 7%; inhibition at 10 µM (5HT5A (h); 5HT5A (h), 10 µM): 84%; inhibition at 10 µM (CXCR2 (h); CXCR2 (h), 10 µM): 12%; inhibition at 1 µM (NK3 (h); NK3 (h), 1 µM): 9%; inhibition at 10 µM (NK3 (h); NK3 (h), 10 µM): 57%; inhibition at 10 µM (5-HT6 (h); 5-HT6 (h), 10 µM): 10%; inhibition at 1 µM (A3 (h); A3 (h), 1 µM): 49%; inhibition at 10 µM (A3 (h); A3 (h), 10 µM): 92%; inhibition at 1 µM (AT1 (h); AT1 (h), 1 µM): 0%; inhibition at 10 µM (AT1 (h); AT1 (h), 10 µM): 32%; inhibition at 1 µM (NE-T; NE-T, 1 µM): 44%; inhibition at 10 µM (NE-T; NE-T, 10 µM): 86%; inhibition at 1 µM (DA-T; DA-T, 1 µM): 38%; inhibition at 10 µM (DA-T; DA-T, 10 µM): 81%; inhibition at 1 µM (D2S (h); D2S (h), 1 µM): 12%; inhibition at 10 µM (D2S (h); D2S (h), 10 µM): 70%; inhibition at 10 µM (OP3 (h); OP3 (h), 10 µM): 17%; inhibition at 1 µM (A2A (h); A2A (h), 1 µM): 20%; inhibition at 10 µM (A2A (h); A2A (h), 10 µM): 5%
COc1nc2ccc([C@](O)(c3ccc(Cl)cc3)c3cncn3C)cc2c(Cl)c1Cc1ccc(-n2cccn2)cc1 [B] | 31% | – | 10% | – | 10% | 20% | 16% | 21% | 38% | – | – | 7% | 3% | 3% | – | – | 25% | 1% | 9% | inhibition at 1 µM (AT1 (h)): 1%
COc1nc2ccc([C@@](O)(c3ccccc3)C3CCN(C(C)=O)CC3)cc2c(Cl)c1Cc1ccc(-n2cccn2)cc1 [C] | 23% | 10% | 31% | 22% | 5% | 41% | 11% | 19% | 38% | 17% | 25% | 10% | 2% | 15% | 18% | 21% | 13% | 21% | 16% | inhibition at 1 µM (5-HT6 (h); read-out: % Inhibition at 1µM): 20%
